The values that follow come from patent publication US20040127396A1, “Use of furin and furin-like protease inhibitors in the treatment of inflammatory or matrix remodelling diseases” (priority 2000, published 2004).

Assay [1] has as its system proprotein convertases including furin, PC6B, PC3, PC2, PACE-4 and PC7. The conditions noted are these: cited from earlier work.
The subject of assay [2] is TACE maturation in LoVo NEO cells. In words: TACE maturation in LoVo NEO cells by Western blotting. It counts as cell-based, human. The following applies: 24 hrs, various concentrations, FIG. 5B. The text has this: To assess the involvement of furin in TACE endoproteolytic processing, applicant first used a furin-deficient cell line, the LoVo cells. These are human colon carcinoma cells which have a point mutation in both alleles of the fur gene leading to production of a defective enzyme (reference 46). These furin knock-out cells have been extensively used to study the contribution of furin in a cellular context (references 10, 38 and 47). LoVo cells were transfected with wild type furin and two stable transfectants LoVoFUR1 and LoVoFUR2 and control transfectant LoVoNEO have been generated accordingly to their acquired gentamycin resistance. Cell lysates were assessed by Western blotting for the production of TACE proteolytic fragments in immunoblotting using TACE-specific antibodies (Chemicon International, CA). […]
To define if proprotein convertases other than furin are involved in TACE maturation, LoVo NEO cells were incubated for 24 hrs in the presence of Dec-RVKR-CH2Cl, a synthetic peptide that mimics proprotein recognition site. […] LoVo NEO cells were incubated for 24 hrs in the presence of various concentrations of Dec-RVKR-CH2Cl, and cell lysates were assessed for TACE maturation by Western blotting as described above.

Assay [3] relates to TNFα release from MonoMac-1 cells. In words: TNFα release from LPS/PMA-stimulated MonoMac-1 cells (ELISA). The conditions noted are these: 22 hrs preincubation, then LPS and PMA 3 hours, FIG. 5D. The class given is cell-based, human. The protocol:
To investigate whether the levels of TACE maturation observed in LoVo transfectants impacts TACE-related activities, we first measured cell-surface p75 TNF receptor expression as a marker for TACE cell-surface activity. Briefly, LoVo NEO and LoVo FUR2 cell samples were labeled with anti-TACE or anti-TNF p75 receptor antibodies (Catlag laboratories, Burlingame, Calif.) and cell fluorescence was analyzed on a FACScan (Becton Dickinson). […] Next, we measured the ability of Dec-RVKR-CH2Cl to block TNFα release from MonoMac-1 cells, a human monocytic cell line known to produce high levels of this cytokine (50). For this, MonoMac-1 cells were preincubated for 22 hrs with varying concentrations of Dec-RVKR-CH2Cl, then 500 ng/ml LPS and 100 ng/ml PMA were added. After 3 hours incubation with PMA and LPS, the supernatants were tested for TNF-α production using a TNF-α-specific ELISA assay (R&D Systems, Minneapolis, Minn.).

Dec-RVKR-CH2Cl: the “inhibition of enzymatic activity of proprotein convertases” value in assay [1] is “efficiently inhibit”. Moreover, the TACE maturation entry in assay [2] is on record as “further inhibition of TACE maturation”. The TNFα released result in assay [3] is “blocked almost completely”.
